Reference: patent US20110201564A1, “SUBSTITUTED 7-SULFANYLMETHYL, 7-SULFINYLMETHYL AND 7-SULFONYLMETHYL INDOLES AND USE THEREOF” (BAYER SCHERING PHARMA AKTIENGESELLSCHAFT, priority 2008, published 2011)
Like-named read-outs stand apart in the source and are kept apart here.

Assays:
[1] = molecular target: T1, human mineralocorticoid receptor (MR) (Homo sapiens, UniProt P08235); assay: Cellular in vitro assay, GAL4-MR chimera luciferase reporter in CHO K1 cells (inhibitory MR activity); type: cell-based; conditions: antagonism vs aldosterone; CHO K1 GAL4-MR LBD luciferase reporter
T1 construct: expressed in transfected cells; host or cells: CHO K1
T1 sequence (P08235 734-984 limits assumed): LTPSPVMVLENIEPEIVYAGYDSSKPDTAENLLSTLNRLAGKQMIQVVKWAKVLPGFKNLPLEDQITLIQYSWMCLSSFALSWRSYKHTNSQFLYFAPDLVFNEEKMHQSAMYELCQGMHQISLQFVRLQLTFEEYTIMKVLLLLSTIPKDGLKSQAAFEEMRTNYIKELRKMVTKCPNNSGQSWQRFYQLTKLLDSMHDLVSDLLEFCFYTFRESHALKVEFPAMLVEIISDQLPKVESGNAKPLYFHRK
Text: (§1) 1. Cellular In Vitro Assay to Determine the Inhibitory MR Activity and MR Selectivity Compared with Other Steroid Hormone Receptors
(§2) Antagonists of the human mineralocorticoid receptor (MR) are identified, and the activity of the compounds described herein is quantified with the aid of a recombinant cell line. The cell is originally derived from a hamster ovary epithelial cell (Chinese Hamster Ovary, CHO K1, ATCC: American Type Culture Collection, VA 20108, USA).
(§3) An established chimera system in which the ligand-binding domains of human steroid hormone receptors are fused to the DNA-binding domain of the yeast transcription factor GAL4 is used in this CHO K1 cell line. The GAL4-steroid hormone receptor chimeras produced in this way are cotransfected and stably expressed with a reporter construct in the CHO cells.
(§4) To generate the GAL4-steroid hormone receptor chimeras, the GAL4 DNA-binding domain (amino acids 1-147) from the vector pFC2-dbd (from Stratagene) is cloned with the PCR-amplified ligand-binding domains of the mineralocorticoid receptor (MR, amino acids 734-985), of the progesterone receptor (PR, amino acids 680-933) and of the androgen receptor (AR, amino acids 667-919) into the vector pIRES2 (from Clontech). The reporter construct, which comprises five copies of the GAL4 binding site upstream of a thymidine kinase promoter, leads to expression of firefly luciferase (Photinus pyralis) after activation and binding of the GAL4-steroid hormone receptor chimeras by the respective specific agonists aldosterone (MR), dexamethasone (GR), progesterone (PR) and dihydrotestosterone (AR).
(§5) The MR, PR and AR cells are plated out in medium (Optimem, 2.5% FCS, 2 mM glutamine, 10 mM HEPES) in 96- (or 384- or 1536-)well microtiter plates on the day before the assay and are kept in a cell incubator (96% humidity, 5% v/v CO2, 37° C.). On the day of the assay, the substances to be tested are taken up in the abovementioned medium and added to the cells. About 10 to 30 minutes after addition of the test substances, the respective specific agonists of the steroid hormone receptors are added. After a further incubation time of 5 to 6 hours, the luciferase activity is measured with the aid of a video camera. The measured relative light units as a function of the substance concentration result in a sigmoidal stimulation curve. The IC50 values are calculated with the aid of the GraphPad PRISM computer program (Version 3.02).

[2] = molecular target: T2, progesterone receptor (PR) (Homo sapiens, UniProt P06401); assay: Cellular in vitro assay, GAL4-PR chimera luciferase reporter in CHO K1 cells (selectivity); type: cell-based; conditions: antagonism vs progesterone; CHO K1 GAL4-PR LBD luciferase reporter
T2 construct: of the progesterone receptor (PR, amino acids 680-933); expressed in transfected cells; host or cells: CHO K1
T2 sequence (P06401 680-933): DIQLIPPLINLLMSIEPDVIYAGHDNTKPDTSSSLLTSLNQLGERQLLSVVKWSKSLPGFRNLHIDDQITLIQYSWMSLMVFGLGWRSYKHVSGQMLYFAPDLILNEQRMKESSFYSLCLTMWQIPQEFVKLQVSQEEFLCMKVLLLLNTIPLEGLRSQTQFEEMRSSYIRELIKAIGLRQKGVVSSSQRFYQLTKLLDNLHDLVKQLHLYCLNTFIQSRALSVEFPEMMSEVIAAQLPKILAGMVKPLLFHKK
Text: as §1, §2, §3, §4, §5

CYP3A4 = molecular target: T3, CYP3A4 (Homo sapiens, UniProt P08684); assay: CYP inhibition assay with human liver microsomes; type: in vitro ADME
T3 construct: using human liver microsomes (pool from various individuals); from tissue; host or cells: human liver microsomes (pool from various individuals)
T3 sequence (P08684 whole entry): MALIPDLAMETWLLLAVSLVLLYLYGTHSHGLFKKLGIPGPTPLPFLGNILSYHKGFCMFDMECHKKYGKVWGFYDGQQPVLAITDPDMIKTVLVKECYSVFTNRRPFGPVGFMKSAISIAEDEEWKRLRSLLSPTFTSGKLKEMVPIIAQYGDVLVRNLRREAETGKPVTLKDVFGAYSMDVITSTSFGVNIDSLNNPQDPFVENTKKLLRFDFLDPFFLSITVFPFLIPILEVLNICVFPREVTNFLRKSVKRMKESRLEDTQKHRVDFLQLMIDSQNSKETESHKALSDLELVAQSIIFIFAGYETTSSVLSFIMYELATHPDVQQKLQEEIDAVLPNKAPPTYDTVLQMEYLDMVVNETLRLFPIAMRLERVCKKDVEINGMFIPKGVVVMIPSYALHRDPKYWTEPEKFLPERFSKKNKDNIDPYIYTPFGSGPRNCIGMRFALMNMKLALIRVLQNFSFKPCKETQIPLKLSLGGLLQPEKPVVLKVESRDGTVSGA
Text: Inhibitory properties of an active ingredient on the cytochromes P450 (CYP) of the human body may entail extensive clinical effects (drug interactions) because most of the prescribed medicaments are degraded (metabolized) by these enzymes. The ones involved in this are in particular the CYP isoenzymes of the 1A and 2C families, CYP2D6 and, with a proportion of almost 50%, CYP3A4. In order to preclude or minimize these possible drug interactions (Drug-Drug Interactions, DDI), the ability of substances to be able to inhibit CYP1A2, CYP2C8, CYP2C9, CYP2D6 and CYP3A4 in humans is investigated using human liver microsomes (pool from various individuals). This takes place by measuring CYP isoform-specific metabolites formed from standard substrates such as, for example, phenacetin, amodiaquin, diclofenac, dextromethorphan, midazolam and testosterone. The inhibitory effects are investigated at six different concentrations of the test compounds (1.5, 3.1, 6.3, 12.5, 25 and 50 μM as maximum concentration or 0.6, 1.3, 2.5, 5, 10 and 20 μM as maximum concentration), comparing with the extent of the CYP isoform-specific metabolite formation of the standard substrates in the absence of the test compounds, and calculating the corresponding IC50 values. CYP isoform-specific standard inhibitors such as, for example, fluvoxamine, quercetin, sulfaphenazole, fluoxetine and ketoconazole serve as control of the results obtained. In order to obtain indications of the possible mechanism-based inhibitors (MBI) on CYP3A4, the human liver microsomes are incubated in the presence of the inhibitor to be investigated for 30 minutes before the addition of midazolam or testosterone as standard substrates of CYP3A4. A reduction in the IC50 obtained by comparison with the mixture without preincubation serves as an indicator of a mechanism-based inhibition. Mibefradil serves as positive control.
The incubations of the standard substrates with human liver microsomes (23-233 μg/mL) in the presence of the test compound (as potential inhibitor) are carried out in 96-well plates in a workstation (Tecan, Genesis, Crailsheim, Germany) at 37° C. The incubation times are 15-20 minutes. The test compounds are preferably dissolved in acetonitrile (1.0 or 2.5 mM stock solution). The 96-well plates are produced by sequential addition of a stock solution of NADP+, EDTA, glucose 6-phosphate and glucose-6-phosphate dehydrogenase in phosphate buffer (pH 7.4), the test compound, and a solution of standard substrate and human liver microsomes in phosphate buffer (pH 7.4). The total volume is 200 μl. The corresponding control incubations with and without standard inhibitor also take place on the 96-well plate. The incubations are stopped after the respective incubation time by adding 100 μl of acetonitrile in which there is a suitable internal standard. Precipitated proteins are removed by centrifugation (3000 rpm, 10 minutes, 10° C.). The resulting supernatants of the respective plates are combined on one plate and analyzed by LC-MS/MS. The […] values are generated from the resulting measured data and used to assess the inhibitory potential of the test compound.

androgen receptor (AR) = molecular target: T4, androgen receptor (AR) (Homo sapiens, UniProt P10275); assay: Cellular in vitro assay, GAL4-AR chimera luciferase reporter in CHO K1 cells (selectivity); type: cell-based; conditions: antagonism vs dihydrotestosterone; CHO K1 GAL4-AR LBD luciferase reporter
T4 construct: of the androgen receptor (AR, amino acids 667-919); expressed in transfected cells; host or cells: CHO K1
T4 sequence (P10275 668-920): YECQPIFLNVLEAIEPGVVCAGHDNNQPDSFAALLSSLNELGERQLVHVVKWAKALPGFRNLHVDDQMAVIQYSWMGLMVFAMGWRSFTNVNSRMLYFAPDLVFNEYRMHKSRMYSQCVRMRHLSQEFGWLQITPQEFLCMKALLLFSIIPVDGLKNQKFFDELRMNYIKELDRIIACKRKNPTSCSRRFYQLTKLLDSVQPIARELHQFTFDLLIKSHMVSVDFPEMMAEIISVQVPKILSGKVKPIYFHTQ
Text: as §1, §2, §3, §4, §5

[3] = 30 min preincubation with test compound before substrate, read-out: CYP 3A4 Preincubation, 30 min.
[4] = without preincubation, read-out: CYP 3A4 Coincubation

For `CS(=O)(=O)Cc1cccc2c(C(c3c(F)cc(Cl)cc3F)C3CC3)c[nH]c12` (stereo not drawn) [Example 252, 3-[(4-Chloro-2,6-difluorophenyl)(cyclopropyl)methyl]-7-[(methylsulfonyl)methyl]-1H-indole], the IC50 [1] was 0.071 µM, the IC50 [2] was 10 µM and the IC50 (CYP3A4; [3]) was > 20 µM. For the same compound, the IC50 (CYP3A4; [4]) was > 20 µM and the IC50 (androgen receptor (AR)) was 3.03 µM.

With `CS(=O)(=O)Cc1cccc2c(C(c3ccc(Cl)cc3)C3CC3)c[nH]c12` (stereo not drawn) [Example 249, 3-[(4-Chlorophenyl)(cyclopropyl)methyl]-7-[(methylsulfonyl)methyl]-1H-indole] the IC50 [1] was 0.069 µM, the IC50 [2] was 9.73 µM and the IC50 (CYP3A4; [3]) was 18.3 µM. For the same compound, the IC50 (CYP3A4; [4]) was > 20 µM and the IC50 (androgen receptor (AR)) was 3.45 µM.

`CS(=O)(=O)Cc1cccc2c(C(c3ccc(Cl)cc3)C3CC3(F)F)c[nH]c12` (single isomer, unassigned) [Example 261-2, 3-[(4-Chlorophenyl)(2,2-difluorocyclopropyl)methyl]-7-[(methylsulfonyl)methyl]-1H-indole] showed an IC50 [1] of 0.028 µM, an IC50 [2] of 5.24 µM and an IC50 (CYP3A4; [3]) of 15 µM. The IC50 (CYP3A4; [4]) was > 20 µM and the IC50 (androgen receptor (AR)) was 6.06 µM.

`CS(=O)(=O)Cc1cccc2c(C(c3ccc(Cl)cc3Cl)C3CC3)c[nH]c12` (stereo not drawn) [Example 242, 3-[Cyclopropyl(2,4-dichlorophenyl)methyl]-7-[(methylsulfonyl)methyl]-1H-indole] gave an IC50 [1] of 0.066 µM, an IC50 [2] of 3.77 µM and an IC50 (CYP3A4; [3]) of 15.8 µM. The IC50 (CYP3A4; [4]) was > 20 µM and the IC50 (androgen receptor (AR)) was 1.39 µM.

`C[S+]([O-])Cc1cccc2c(C3(C4CC4)CCc4cc(F)ccc43)c[nH]c12` (mixture of isomers) [Example 120, 3-(1-Cyclopropyl-5-fluoro-2,3-dihydro-1H-inden-1-yl)-7-[(methylsulfinyl)methyl]-1H-indole] was tested, and the IC50 [1] was 0.15 µM, the IC50 [2] was 5.51 µM and the IC50 (CYP3A4; [3]) was 14.4 µM. For the same compound, the IC50 (CYP3A4; [4]) was > 20 µM.

`CS(=O)(=O)Cc1cccc2c(C(c3ccc(C(F)(F)F)cc3Cl)C3CC3)c[nH]c12` (stereo not drawn) [Example 245, 3-{[2-Chloro-4-(trifluoromethyl)phenyl](cyclopropyl)methyl}-7-[(methylsulfonyl)methyl]-1H-indole] was tested, and the IC50 [1] was 0.12 µM, the IC50 (CYP3A4; [3]) was > 20 µM and the IC50 (CYP3A4; [4]) was > 20 µM. The IC50 (androgen receptor (AR)) was 3.45 µM.

In the case of `Cc1ccc(C(CCC#N)c2c[nH]c3c(CS(C)(=O)=O)cccc23)cc1` (stereo not drawn) [Example 166, 4-(4-Methylphenyl)-4-{7-[(methylsulfonyl)methyl]-1H-indol-3-yl}butanonitrile], the IC50 [1] is reported as 0.22 µM, the IC50 [2] is reported as 10 µM and the IC50 (CYP3A4; [3]) is reported as 17.6 µM. The IC50 (CYP3A4; [4]) was > 20 µM.

Work on `CS(=O)(=O)Cc1cccc2c(C(c3ccc(F)cc3F)C3CC3)c[nH]c12` (stereo not drawn) [Example 250, 3-[Cyclopropyl(2,4-difluorophenyl)methyl]-7-[(methylsulfonyl)methyl]-1H-indole] yielded an IC50 [1] of 0.27 µM, an IC50 [2] of 10 µM and an IC50 (CYP3A4; [3]) of 19.4 µM. The IC50 (CYP3A4; [4]) was > 20 µM and the IC50 (androgen receptor (AR)) was 1.6 µM.

In the case of `CC(CCC#N)(c1ccc(Cl)cc1)c1c[nH]c2c(CS(C)(=O)=O)cccc12` (stereo not drawn) [Example 171, 4-(4-Chlorophenyl)-4-{7-[(methylsulfonyl)methyl]-1H-indol-3-yl}-pentanonitrile], the IC50 [1] is reported as 0.03 µM, the IC50 [2] is reported as 2.23 µM and the IC50 (CYP3A4; [3]) is reported as 7.8 µM. The IC50 (CYP3A4; [4]) was > 20 µM and the IC50 (androgen receptor (AR)) was 3.2 µM.
